This is an account of results in US10723699B2 (Hyundai Pharm Co., Ltd., priority 2015, dated 2020).

The assay has as its target T1, G protein-coupled receptor 119 (GPR-119) (Mesocricetus auratus, UniProt A0A1U8CD06).
T1 construct: hamster-derived β-cells containing G protein-coupled receptor 119 (GPR-119), HIT-T15 cells; host or cells: HIT-T15 (hamster pancreatic β-cells)
T1 sequence (A0A1U8CD06 1-334): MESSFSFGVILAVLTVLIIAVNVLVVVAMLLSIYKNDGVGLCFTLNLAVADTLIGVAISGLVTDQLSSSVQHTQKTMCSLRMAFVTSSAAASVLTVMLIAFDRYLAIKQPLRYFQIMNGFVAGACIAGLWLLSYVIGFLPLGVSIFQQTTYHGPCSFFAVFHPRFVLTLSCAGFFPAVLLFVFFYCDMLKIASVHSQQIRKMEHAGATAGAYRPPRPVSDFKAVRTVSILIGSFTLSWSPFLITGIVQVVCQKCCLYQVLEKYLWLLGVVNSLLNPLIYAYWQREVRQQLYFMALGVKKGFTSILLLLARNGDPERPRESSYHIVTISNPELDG
The assay is described as follows: cAMP activity in HIT-T15 cells (cAMP dynamic kit, FRET). The class given is cell-based, hamster. A digest of the protocol: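 Hamster HIT-T15 cells (60,000/well) were treated next day with compound at six concentrations, 0.0032–10 μM, for 1 h at 37° C. Cells were then lysed and cAMP measured by competitive HTRF immunoassay (D2-cAMP, cryptate anti-cAMP). Activity was derived as the change in FRET signal relative to DMSO.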

[1] abbreviates: 1 hour at 37° C., six concentrations 0.0032 to 10 μM, read-out: EC50.

Read-outs that look alike come from different tables or passages of the source. Where only a bound is given, the exact number is not on record here.

For orientation: EC50 means the concentration giving half of the maximal effect. With `CC(C)(C)OC(=O)N1CCC(COc2ccc(C3=CCC(C(=O)N4CCC(CCO)CC4)CC3)nc2)CC1` (centres unmarked) [Example 326, tert-butyl 4-((6-(4-(4-(2-hydroxyethyl)piperidine-1-carbonyl)cyclohex-1-enyl)pyridin-3-yloxy)methyl)piperidine-1-carboxylate], the EC50 under setting [1] was 0.07 µM.

As for `CCc1cnc(N2CCC(COc3ccc(C4=CCC(C(=O)NCCO)CC4)cc3F)CC2)nc1` (single isomer, unassigned; (-)) [Example 441, (−)-4-(4-((1-(5-ethylpyrimidin-2-yl)piperidin-4-yl)methoxy)-3-fluorophenyl)-N-(2-hydroxyethyl)cyclohex-3-enecarboxamide], the EC50 is 0.033 µM under setting [1] and at most 0.05 µM (Table 2, read-out: EC50 value).

Regarding `CCc1cnc(N2CCC(COc3ccc(C4=CCC(C(=O)N5CCC(F)(F)CC5)CC4)c(F)c3)CC2)nc1` (centres unmarked) [Example 453, (4,4-difluoropiperidin-1-yl)(4-(4-((1-(5-ethylpyrimidin-2-yl)piperidin-4-yl)methoxy)-2-fluorophenyl)cyclohex-3-enyl)methanone], the EC50 was 0.012 µM under setting [1] and at most 0.05 µM (Table 2, read-out: EC50 value).

As for `CC(C)(C)OC(=O)N1CCC(COc2ccc(C3=CCC(C(=O)N4CCC(=NO)CC4)CC3)nc2)CC1` (centres unmarked) [Example 344, tert-butyl 4-((6-(4-(4-(hydroxyimino)piperidine-1-carbonyl)cyclohex-1-enyl)pyridin-3-yloxy)methyl)piperidine-1-carboxylate], the EC50 under setting [1] was determined as 0.045 µM and the EC50 (Table 2, read-out: EC50 value) was at most 0.05 µM.

As for `CON=C1CCN(C(=O)C2CC=C(c3ccc(OCC4CCN(C(=O)OC(C)(C)C)CC4)cc3)CC2)CC1` (centres unmarked) [Example 270, tert-butyl 4-((4-(4-(4-(methoxyimino)piperidine-1-carbonyl)cyclohex-1-enyl)phenoxy)methyl)piperidine-1-carboxylate], the EC50 (Table 2, read-out: EC50 value) was at most 0.05 µM.

For `CCc1cnc(N2CCC(COc3ccc(C4=CCC(C(=O)N5CCCC5)CC4)cc3C(F)(F)F)CC2)nc1` (centres unmarked) [Example 374], the EC50 under setting [1] is 0.15 µM.

On to `CCC(F)(F)C(=O)N1CCC(COc2ccc(C3=CCC(C(=O)N4CCCC4)CC3)cc2F)CC1` (centres unmarked) [Example 436, 2,2-difluoro-1-(4-((2-fluoro-4-(4-(pyrrolidine-1-carbonyl)cyclohex-1-enyl)phenoxy)methyl)piperidin-1-yl)butan-1-one], for which the EC50 reads like this: under setting [1], 0.0098 µM; (Table 2, read-out: EC50 value) at most 0.05 µM.

In the case of `CCc1cnc(N2CCC(COc3ccc(C4=CCC(C(=O)N5CCNCC5)CC4)cc3F)CC2)nc1` (centres unmarked) [Example 434, (4-(4-((1-(5-ethylpyrimidin-2-yl)piperidin-4-yl)methoxy)-3-fluorophenyl)cyclohex-3-enyl)(piperazin-1-yl)methanone], the EC50 under setting [1] came out at 0.18 µM.

With `CCc1cnc(N2CCC(COc3ccc(C4=CCC(C(=O)N(CCO)CCO)CC4)c(F)c3)CC2)nc1` (centres unmarked) [Example 437, 4-(4-((1-(5-ethylpyrimidin-2-yl)piperidin-4-yl)methoxy)-2-fluorophenyl)-N,N-bis(2-hydroxyethyl)cyclohex-3-enecarboxamide], the EC50 runs as follows: under setting [1], 0.027 µM; (Table 2, read-out: EC50 value) at most 0.05 µM.

Take `CCc1cnc(N2CCC(COc3ccc(C4=CCC(C(=O)NCCO)CC4)cc3F)CC2)nc1` (centres unmarked) [Example 313, 4-(4-((1-(5-ethylpyrimidin-2-yl)piperidin-4-yl)methoxy)-3-fluorophenyl)-N-(2-hydroxyethyl)cyclohex-3-enecarboxamide]: the EC50 under setting [1] came out at 0.12 µM.

Take `CC(OC(=O)N1CCC(COc2ccc(C3=CCC(C(=O)N4CCCC4)CC3)cc2F)CC1)C(F)(F)F` (centres unmarked) [Example 406, 1,1,1-trifluoropropan-2-yl 4-((2-fluoro-4-(4-(pyrrolidine-1-carbonyl)cyclohex-1-enyl)phenoxy)methyl)piperidine-1-carboxylate]: the concentration for a half-maximal effect (EC50) was 0.036 µM under setting [1] and at most 0.05 µM (Table 2, read-out: EC50 value).

As to `CCc1cnc(N2CCC(COc3ccc(C4=CCC(C(=O)NCC(F)F)CC4)cc3F)CC2)nc1` (centres unmarked) [Example 314, N-(2,2-difluoroethyl)-4-(4-((1-(5-ethylpyrimidin-2-yl)piperidin-4-yl)methoxy)-3-fluorophenyl)cyclohex-3-enecarboxamide], the EC50 under setting [1] was 0.061 µM.

For `CCc1cnc(N2CCC(COc3ccc(C4=CCC(C(=O)N5CC(=O)C5)CC4)cc3F)CC2)nc1` (centres unmarked) [Example 295, 1-(4-(4-((1-(5-ethylpyrimidin-2-yl)piperidin-4-yl)methoxy)-3-fluorophenyl)cyclohex-3-enecarbonyl)azetidin-3-one], the EC50 reads like this: under setting [1], 0.043 µM; (Table 2, read-out: EC50 value) at most 0.05 µM.

Regarding `CCc1cnc(N2CCC(COc3ccc(C4=CCC(C(=O)N5CCSCC5)CC4)cc3F)CC2)nc1` (centres unmarked) [Example 300, (4-(4-((1-(5-ethylpyrimidin-2-yl)piperidin-4-yl)methoxy)-3-fluorophenyl)cyclohex-3-enyl)(thiomorpholino)methanone], the EC50 under setting [1] worked out at 0.0085 µM and the EC50 (Table 2, read-out: EC50 value) is at most 0.05 µM.

As to `CC(C)c1noc(N2CCC(COc3ccc(C4=CCC(C(=O)N5CCC(=NO)CC5)CC4)cc3)CC2)n1` (centres unmarked) [Example 276, (4-(hydroxyimino)piperidin-1-yl)(4-(4-((1-(3-isopropyl-1,2,4-oxadiazol-5-yl)piperidin-4-yl)methoxy)phenyl)cyclohex-3-enyl)methanone], the EC50 (Table 2, read-out: EC50 value) is at most 0.05 µM.

`CCc1cnc(N2CCC(COc3ccc(C4=CCC(C(=O)N5CCC(C(F)(F)F)CC5)CC4)c(F)c3)CC2)nc1` (centres unmarked) [Example 452, (4-(4-((1-(5-ethylpyrimidin-2-yl)piperidin-4-yl)methoxy)-2-fluorophenyl)cyclohex-3-enyl)(4-(trifluoromethyl)piperidin-1-yl)methanone]: the EC50 by setting is: under setting [1], 0.018 µM; (Table 2, read-out: EC50 value) at most 0.05 µM.

Turning to `CCc1cnc(N2CCC(COc3ccc(C4=CCC(C(=O)N5CCSCC5)CC4)cn3)CC2)nc1` (centres unmarked) [Example 352, (4-(6-((1-(5-ethylpyrimidin-2-yl)piperidin-4-yl)methoxy)pyridin-3-yl)cyclohex-3-enyl)(thiomorpholino)methanone], under setting [1], the EC50 is 0.063 µM.

For `CCc1cnc(N2CCC(COc3ccc(C4=CCC(C(=O)N5CCC(O)CC5)CC4)cn3)CC2)nc1` (centres unmarked) [Example 353, (4-(6-((1-(5-ethylpyrimidin-2-yl)piperidin-4-yl)methoxy)pyridin-3-yl)cyclohex-3-enyl)(4-hydroxypiperidin-1-yl)methanone], the EC50 under setting [1] is 0.058 µM.

As for `CCc1cnc(N2CCC(COc3ccc(C4=CCC(C(=O)N5CCOCC5)CC4)c(F)c3)CC2)nc1` (centres unmarked) [Example 422, (4-(4-((1-(5-ethylpyrimidin-2-yl)piperidin-4-yl)methoxy)-2-fluorophenyl)cyclohex-3-enyl)(morpholino)methanone], the EC50 reads like this: under setting [1], 0.018 µM; (Table 2, read-out: EC50 value) at most 0.05 µM.

On to `CC(C)c1noc(N2CCC(COc3ccc(C4=CCC(C(=O)N5CCN(C6CC6)CC5)CC4)cc3)CC2)n1` (centres unmarked) [Example 397, (4-cyclopropylpiperazin-1-yl)(4-(4-((1-(3-isopropyl-1,2,4-oxadiazol-5-yl)piperidin-4-yl)methoxy)phenyl)cyclohex-3-enyl)methanone], for which, under setting [1], the EC50 was found to be 0.0099 µM.

Take `CC(C)c1noc(N2CCC(COc3ccc(C4=CCC(C(=O)N(CCO)CCO)CC4)cc3F)CC2)n1` (centres unmarked) [Example 372, 4-(3-fluoro-4-((1-(3-isopropyl-1,2,4-oxadiazol-5-yl)piperidin-4-yl)methoxy)phenyl)-N,N-bis(2-hydroxyethyl)cyclohex-3-enecarboxamide]: the EC50 by setting is: under setting [1], 0.046 µM; (Table 2, read-out: EC50 value) at most 0.05 µM.
